{"source": "patent US7122173B2", "about": "“Agent for the treatment of bladder irritative symptoms accompanied by benign prostatic hyperplasia” (Kyowa Hakko Kogyo Co., Ltd., priority 2001, dated 2006)", "key": {"[1]": {"system": "slowly-inactivating A-type K^+ channel", "assay": "Voltage clamp, slowly-inactivating A-type K+ currents in Fast Blue-labeled capsaicin-sensitive bladder afferent neurons", "format": "cell-based, rat", "conditions": "Compound 1 1.0 × 10^−6 mol/L", "method": "Experiments were performed on adult female Sprague Dawley rats. First and second series of the experiments were performed, respectively, in unidentified DRG neurons and a specific population of DRG neurons innervating the urinary bladder. The population of DRG neurons that innervate the urinary bladder were labeled by retrograde axonal transport of the fluorescent dye, Fast Blue (4% w/v) (Polyloy, Gross Umstadt, Germany), injected into the wall of the bladder in halothane-anesthetized animals 7 days before the dissociation. The dye was injected with a 28 gauge needle at three to six sites on the dorsal surface of the organ (5–6 μL per site, total volume of 20–30 μL). Each injection site was washed with saline to minimize contamination of adjacent organs with the dye.\nFreshly dissociated neurons from DRG were prepared from halothane-anesthetized animals. […]\nDye-labeled primary afferent neurons that innervate the urinary bladder were identified using an inverted phase-contrast microscope (Nikon, Tokyo, Japan) with fluorescent attachments (UV-1A filter; excitation wavelength, 365 nm). […] All recordings were made with an Axopatch-1D patch-clamp amplifier (Axon Instruments, Foster City, Calif.), and data were acquired and analyzed by PCLAMP software (Axon Instruments).\nIn voltage-clamp recordings, outward K^+ currents and inward Na^+ currents were measured. […]"}, "dd male mice": {"system": "dd male mice", "conditions": "mouse, in vivo, po, 7 day", "method": "The test compound was administered orally or intraperitoneally to 3 animals per group of dd male mice (body weight, 20±1 g). Minimum lethal dose (MLD) value was obtained by observing mortality on the 7th day after the administration."}, "DRG cells": {"system": "DRG cells", "assay": "Current clamp, changes in membrane potential in DRG cells", "format": "cell-based, rat", "conditions": "control (0 mol/L) −47.95 ± 0.22", "method": "Experiments were performed on adult female Sprague Dawley rats. A […] population of DRG neurons that innervate the urinary bladder were labeled by retrograde axonal transport of the fluorescent dye, Fast Blue (4% w/v) (Polyloy, Gross Umstadt, Germany) injected into the wall of the bladder in halothane-anesthetized animals 7 days before the dissociation. The dye was injected with a 28 gauge needle at three to six sites on the dorsal surface of the organ (5–6 μL per site, total volume of 20–30 μL). Each injection site was washed with saline to minimize contamination of adjacent organs with the dye.\nFreshly dissociated neurons from DRG were prepared from halothane-anesthetized animals. L6 and S1 DRG were dissected from animals and then dissociated in a shaking bath for 25 minutes at 35° C. with 5 mL DMEM (Sigma) containing 0.3 mg/mL trypsin (Type 3, Sigma), 1 mg/mL collagenase (Type 1, Sigma), and 0.1 mg/ML deoxyribonuclease (Type 4, Sigma). Trypsin inhibitor (Type 2a, Sigma) was then added thereto to neutralize the activity of trypsin. Individual DRG cell bodies were isolated by trituration and then plated on a poly-L-lysine-coated 35 mm Petri dishes.\nDye-labeled primary afferent neurons that innervate the urinary bladder were identified using an inverted phase-contrast microscope (Nikon, Tokyo, Japan) with fluorescent attachments (UV-1A filter; excitation wavelength, 365 nm). Gigaohm-seal whole-cell recordings were performed within 6–8 hours after cell dissociation at room temperature (20–22° C.) on each labeled neuron in a culture dish that usually contained three to seven labeled cells among a few hundred unlabeled neurons. The internal solution contained (in mmol/L): KCl 140, CaCl2 1, MgCl2 2, EGTA 11, HEPES 10, Mg-ATP 2, and Tris-GTP 0.4 adjusted to pH 7.4 with KOH. Patch electrodes had resistances of 1–4 M Ω when filled with the internal solution. Neurons were superfused at a flow rate of 1.5 mL/minutes with an external solution containing (in mmol/L): NaCl 150, KCl 5, CaCl2 2.5, MgCl2 1, HEPES 10, and D-glucose 10, adjusted to pH 7.4 with NaOH. All recordings were made with an Axopatch-1D patch-clamp amplifier (Axon Instruments, Foster City, Calif.), and data were acquired and analyzed by PCLAMP software (Axon Instruments).\nIn current-clamp recordings, membrane potential of DRG cell were measured before and after compound applications. The membrane potentials were normalized to control (before addition of the compound)."}}}
{"smiles": "C[C@](O)(C(=O)Nc1cccc2c1C(=O)c1sccc1CS2(=O)=O)C(F)(F)F", "note": "[Compound 1, (S)-(+)-N-(5,5-dioxido-10-oxo-4,10-dihydrothieno[3,2-c][1]benzothiepin-9-yl)-3,3,3-trifluoro-2-hydroxy-2-methylpropanamide]", "values": [{"measurement": "A-type IK (HP: −120 mV) − (HP: −40 mV), normalized to control", "setting": "[1]", "result": "1.26 ± 0.03"}, {"measurement": "Minimum lethal dose (MLD)", "setting": "dd male mice", "result": "> 1,000 mg/kg"}, {"measurement": "Membrane potential", "setting": "DRG cells; Compound 1 1.0 × 10^−6 mol/L", "result": "−53.67 ± 0.74", "unit": "mV"}, {"measurement": "Membrane potential", "setting": "DRG cells; Compound 1 1.0 × 10^−7 mol/L", "result": "−57.17 ± 0.53", "unit": "mV"}, {"measurement": "Membrane potential", "setting": "DRG cells; Compound 1 1.0 × 10^−8 mol/L", "result": "−49.80 ± 0.65", "unit": "mV"}, {"measurement": "Membrane potential", "setting": "DRG cells; Compound 1 1.0 × 10^−9 mol/L", "result": "−48.10 ± 0.48", "unit": "mV"}, {"measurement": "Membrane potential", "setting": "DRG cells; Compound 1 5.0 × 10^−4 mol/L", "result": "−42.67 ± 1.46", "unit": "mV"}, {"measurement": "Membrane potential", "setting": "DRG cells; Compound 1 5.0 × 10^−5 mol/L", "result": "−48.50 ± 1.28", "unit": "mV"}, {"measurement": "Membrane potential", "setting": "DRG cells; Compound 1 5.0 × 10^−6 mol/L", "result": "−50.50 ± 0.88", "unit": "mV"}]}
